Source: patent US20250275540A1, “USE OF PROTOPORPHYRINOGEN OXIDASE” (BEIJING DABEINONG BIOTECHNOLOGY CO., LTD., priority 2022, published 2025)

Test system: transgenic Arabidopsis thaliana T1 plants
Test: Detection of the herbicide tolerance of the transgenic Arabidopsis thaliana plants
Type: in vivo
Settings: for The grade of pesticide damage/plant: 0 / The grade of pesticide damage/plant: 1 / The grade of pesticide damage/plant: 2 / The grade of pesticide damage/plant: 3: 7 DAT
Source text: The transformed Arabidopsis thaliana T1 plants were initially selected using glufosinate herbicide. The Arabidopsis thaliana T1 plants (PPOA-01) into which the PPOA-01 nucleotide sequence was introduced, the Arabidopsis thaliana T1 plants (PPOB-01) into which the PPOB-01 nucleotide sequence was introduced, the Arabidopsis thaliana T1 plants (PPOC-01) into which the PPOC-01 nucleotide sequence was introduced, the Arabidopsis thaliana T1 plants (PPOD-01) into which the PPOD-01 nucleotide sequence was introduced, the Arabidopsis thaliana T1 plants (PPOE-01) into which the PPOE-01 nucleotide sequence was introduced, the Arabidopsis thaliana T1 plants (PPOF-01) into which the PPOF-01 nucleotide sequence was introduced, the Arabidopsis thaliana T1 plants (PPO-AP-01) into which the PPO-AP-01 nucleotide sequence was introduced, and the Arabidopsis thaliana T1 plants (control vector) into which the control vector was introduced, the wild-type Arabidopsis thaliana plants (CK) (with 24 plants being included in each genotype) (18 days after sowing) were sprayed with saflufenacil at three concentrations (25 g ai/ha (one-fold field concentration, 1×), 100 g ai/ha (four-fold field concentration, 4×), and 0 g ai/ha (water, 0×)), oxyfluorfen at three concentrations (180 g ai/ha (one-fold field concentration, 1×), 720 g ai/ha (four-fold field concentration, 4×), and 0 g ai/ha (water, 0×)), and flumioxazin at three concentrations (60 g ai/ha (one-fold field concentration, 1×), 240 g ai/ha (four-fold field concentration, 4×), and 0 g ai/ha (water, 0×) to determine the tolerance of Arabidopsis thaliana to the herbicides. After 7 days of spraying (7 DAT), the damage level of each plant caused by the herbicide was evaluated according to the average of the damage levels (%) of plants (the average of the damage levels (%) of plants=the injured leaf area/the total leaf area×100%), i.e., the grade of pesticide damage: grade 0 means that the growth status of plants is essentially consistent with those sprayed with the blank solvent (water); grade 1 means that the average of the damage levels of plants is less than 10%; grade 2 means that the average of the damage levels of plants is greater than 10%; and grade 3 means that the average of the damage levels of plants is 100%. The plants having a growth status falling within grades 0 and 1 are classified as highly resistant plants; those having a growth status falling within grade 2 are classified as poorly resistant plants; and those having a growth status falling within grade 3 are classified as non-resistant plants.

[1] = genotype Control vector, 25 g ai/ha
[2] = genotype Control vector, 100 g ai/ha
[3] = genotype PPO-AP-01, 100 g ai/ha

CC(C)N(C)S(=O)(=O)NC(=O)c1cc(-n2c(=O)cc(C(F)(F)F)n(C)c2=O)c(F)cc1Cl [saflufenacil, N′-[2-chloro-4-fluoro-5-(3-methyl-2,6-dioxo-4-(trifluoromethyl)-3,6-dihydro-1 (2H)-pyrimidine)benzoyl]-N-isopropyl-N-methylsulfamide]
high-resistant tolerance: tolerance to the herbicide (in words) (genotypes PPOA-01 to PPOF-01, at different concentrations, compared with the control vector and CK)
25 g ai/ha: effective dose distinguishing sensitive plants from plants having an average level of resistance (Arabidopsis thaliana)
24 plant: The grade of pesticide damage/plant: 3 (genotype CK, 25 g ai/ha) | The grade of pesticide damage/plant: 3 (genotype CK, 100 g ai/ha) | The grade of pesticide damage/plant: 3 [1] | The grade of pesticide damage/plant: 3 [2] | The grade of pesticide damage/plant: 3 (genotype PPO-AP-01, 25 g ai/ha) | The grade of pesticide damage/plant: 3 [3] | The grade of pesticide damage/plant: 0 (genotype PPOA-01, 25 g ai/ha) | The grade of pesticide damage/plant: 1 (genotype PPOA-01, 100 g ai/ha) | The grade of pesticide damage/plant: 0 (genotype PPOB-01, 25 g ai/ha) | The grade of pesticide damage/plant: 1 (genotype PPOB-01, 100 g ai/ha) | The grade of pesticide damage/plant: 0 (genotype PPOC-01, 25 g ai/ha) | The grade of pesticide damage/plant: 1 (genotype PPOC-01, 100 g ai/ha) | The grade of pesticide damage/plant: 0 (genotype PPOD-01, 25 g ai/ha) | The grade of pesticide damage/plant: 1 (genotype PPOD-01, 100 g ai/ha) | The grade of pesticide damage/plant: 0 (genotype PPOE-01, 25 g ai/ha) | The grade of pesticide damage/plant: 1 (genotype PPOE-01, 100 g ai/ha) | The grade of pesticide damage/plant: 0 (genotype PPOF-01, 25 g ai/ha) | The grade of pesticide damage/plant: 1 (genotype PPOF-01, 100 g ai/ha)
no tolerance: tolerance to the herbicide (in words) (genotype PPO-AP-01, at different concentrations)
0 plant: The grade of pesticide damage/plant: 0 (genotype CK, 25 g ai/ha) | The grade of pesticide damage/plant: 1 (genotype CK, 25 g ai/ha) | The grade of pesticide damage/plant: 2 (genotype CK, 25 g ai/ha) | The grade of pesticide damage/plant: 0 (genotype CK, 100 g ai/ha) | The grade of pesticide damage/plant: 1 (genotype CK, 100 g ai/ha) | The grade of pesticide damage/plant: 2 (genotype CK, 100 g ai/ha) | The grade of pesticide damage/plant: 0 [1] | The grade of pesticide damage/plant: 1 [1] | The grade of pesticide damage/plant: 2 [1] | The grade of pesticide damage/plant: 0 [2] | The grade of pesticide damage/plant: 1 [2] | The grade of pesticide damage/plant: 2 [2] | The grade of pesticide damage/plant: 0 (genotype PPO-AP-01, 25 g ai/ha) | The grade of pesticide damage/plant: 1 (genotype PPO-AP-01, 25 g ai/ha) | The grade of pesticide damage/plant: 2 (genotype PPO-AP-01, 25 g ai/ha) | The grade of pesticide damage/plant: 0 [3] | The grade of pesticide damage/plant: 1 [3] | The grade of pesticide damage/plant: 2 [3] | The grade of pesticide damage/plant: 1 (genotype PPOA-01, 25 g ai/ha) | The grade of pesticide damage/plant: 2 (genotype PPOA-01, 25 g ai/ha) | The grade of pesticide damage/plant: 3 (genotype PPOA-01, 25 g ai/ha) | The grade of pesticide damage/plant: 0 (genotype PPOA-01, 100 g ai/ha) | The grade of pesticide damage/plant: 2 (genotype PPOA-01, 100 g ai/ha) | The grade of pesticide damage/plant: 3 (genotype PPOA-01, 100 g ai/ha) | The grade of pesticide damage/plant: 1 (genotype PPOB-01, 25 g ai/ha) | The grade of pesticide damage/plant: 2 (genotype PPOB-01, 25 g ai/ha) | The grade of pesticide damage/plant: 3 (genotype PPOB-01, 25 g ai/ha) | The grade of pesticide damage/plant: 0 (genotype PPOB-01, 100 g ai/ha) | The grade of pesticide damage/plant: 2 (genotype PPOB-01, 100 g ai/ha) | The grade of pesticide damage/plant: 3 (genotype PPOB-01, 100 g ai/ha) | The grade of pesticide damage/plant: 1 (genotype PPOC-01, 25 g ai/ha) | The grade of pesticide damage/plant: 2 (genotype PPOC-01, 25 g ai/ha) | The grade of pesticide damage/plant: 3 (genotype PPOC-01, 25 g ai/ha) | The grade of pesticide damage/plant: 0 (genotype PPOC-01, 100 g ai/ha) | The grade of pesticide damage/plant: 2 (genotype PPOC-01, 100 g ai/ha) | The grade of pesticide damage/plant: 3 (genotype PPOC-01, 100 g ai/ha) | The grade of pesticide damage/plant: 1 (genotype PPOD-01, 25 g ai/ha) | The grade of pesticide damage/plant: 2 (genotype PPOD-01, 25 g ai/ha) | The grade of pesticide damage/plant: 3 (genotype PPOD-01, 25 g ai/ha) | The grade of pesticide damage/plant: 0 (genotype PPOD-01, 100 g ai/ha) | The grade of pesticide damage/plant: 2 (genotype PPOD-01, 100 g ai/ha) | The grade of pesticide damage/plant: 3 (genotype PPOD-01, 100 g ai/ha) | The grade of pesticide damage/plant: 1 (genotype PPOE-01, 25 g ai/ha) | The grade of pesticide damage/plant: 2 (genotype PPOE-01, 25 g ai/ha) | The grade of pesticide damage/plant: 3 (genotype PPOE-01, 25 g ai/ha) | The grade of pesticide damage/plant: 0 (genotype PPOE-01, 100 g ai/ha) | The grade of pesticide damage/plant: 2 (genotype PPOE-01, 100 g ai/ha) | The grade of pesticide damage/plant: 3 (genotype PPOE-01, 100 g ai/ha) | The grade of pesticide damage/plant: 1 (genotype PPOF-01, 25 g ai/ha) | The grade of pesticide damage/plant: 2 (genotype PPOF-01, 25 g ai/ha) | The grade of pesticide damage/plant: 3 (genotype PPOF-01, 25 g ai/ha) | The grade of pesticide damage/plant: 0 (genotype PPOF-01, 100 g ai/ha) | The grade of pesticide damage/plant: 2 (genotype PPOF-01, 100 g ai/ha) | The grade of pesticide damage/plant: 3 (genotype PPOF-01, 100 g ai/ha)
